Measured values taken from patent US7208572B2, “Leptin-related peptides” (Albany Medical College, priority 1998, dated 2007).

Experiments:
[1] = Epitope mapping: body weight and food intake in female C57BL/6J ob/ob mice, 7 daily ip injections; type: in vivo, mouse; conditions: 1 mg/day ip, 7 days
Procedure: Animal procedures. Feeding and weighing schedules, as well as peptide administration protocols, are as described in EXAMPLE 8, supra.
Statistical analysis. Changes in body weight and differences in food intake between peptide-treated and vehicle-injected control mice were analyzed by analysis of variance (ANOVA) and considered significant when P<0.05.
Female ob/ob mice (n=6 per group) were given a single ip injection of 0.2 ml of vehicle (PBS, pH 7.2) or leptin-related synthetic peptide amide in 0.2 ml PBS for 7 consecutive days. Daily changes in body weight compared to pretreatment weights in both vehicle-injected control and peptide-treated mice are shown in FIG. 4. […] There was no evidence of weight loss in response to peptide treatment.

[2] = target: T1, OB-Rb (Mus musculus, UniProt P48356); experiment: SEAP reporter gene signal transduction assay in GT1–7 cells cotransfected with HRRE-SEAP and OB-Rb; type: cell-based; conditions: peptide 1 to 250 uM, 24 h
T1 construct: full-length leptin receptor (OB-Rb), the receptor isoform predominantly expressed in the hypothalamus; expressed in transfected cells; host or cells: GT1-7
T1 sequence (P48356 22-1162): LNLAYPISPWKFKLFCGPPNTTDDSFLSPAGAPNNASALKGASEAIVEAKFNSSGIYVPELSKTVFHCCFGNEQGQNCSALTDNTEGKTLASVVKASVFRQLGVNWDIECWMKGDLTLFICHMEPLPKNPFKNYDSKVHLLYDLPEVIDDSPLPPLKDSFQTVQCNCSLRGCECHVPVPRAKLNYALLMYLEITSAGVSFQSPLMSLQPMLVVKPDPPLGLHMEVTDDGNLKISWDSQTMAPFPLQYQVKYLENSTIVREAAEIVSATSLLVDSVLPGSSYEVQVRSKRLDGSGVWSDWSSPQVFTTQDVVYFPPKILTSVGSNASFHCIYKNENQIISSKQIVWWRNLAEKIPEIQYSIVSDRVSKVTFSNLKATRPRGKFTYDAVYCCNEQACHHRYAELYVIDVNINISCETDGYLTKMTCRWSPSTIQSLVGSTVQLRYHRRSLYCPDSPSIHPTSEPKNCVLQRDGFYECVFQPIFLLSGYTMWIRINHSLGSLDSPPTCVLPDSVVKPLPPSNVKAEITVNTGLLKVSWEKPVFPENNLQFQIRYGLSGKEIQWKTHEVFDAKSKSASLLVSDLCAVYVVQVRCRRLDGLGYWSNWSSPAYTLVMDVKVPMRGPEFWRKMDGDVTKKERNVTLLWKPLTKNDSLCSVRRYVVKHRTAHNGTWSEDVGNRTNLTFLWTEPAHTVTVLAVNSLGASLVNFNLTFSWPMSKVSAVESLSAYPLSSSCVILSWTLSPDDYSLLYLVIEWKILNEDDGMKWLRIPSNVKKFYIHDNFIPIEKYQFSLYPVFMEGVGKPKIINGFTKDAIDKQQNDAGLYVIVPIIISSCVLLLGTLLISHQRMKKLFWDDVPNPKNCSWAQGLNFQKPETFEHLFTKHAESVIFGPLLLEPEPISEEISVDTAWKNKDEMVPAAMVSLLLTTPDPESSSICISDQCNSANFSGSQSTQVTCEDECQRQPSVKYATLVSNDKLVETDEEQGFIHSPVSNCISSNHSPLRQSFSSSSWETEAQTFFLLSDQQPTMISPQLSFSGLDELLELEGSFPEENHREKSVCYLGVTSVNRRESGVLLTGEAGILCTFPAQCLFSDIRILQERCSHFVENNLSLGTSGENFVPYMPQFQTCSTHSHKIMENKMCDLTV
From the text: Initial experiments to determine the mechanism of action of LEP(116–130) utilized two highly sensitive in vitro bioassays routinely used to assess leptin binding and receptor activation (see e.g., White, et al., 1997. Proc. Natl. Acad. Sci. U.S.A. 94: 10657–10662). An alkaline phosphatase (“AP”)-leptin (“OB”) fusion protein (“AP-OB”) was used to measure inhibition of leptin binding in the absence or presence of recombinant mouse leptin (positive control) or peptide, by COS-7 cells transfected with the long (signaling) form of the mouse OB receptor (“OB-RL”). Signal transduction assays were done in GT1–7 cells cotransfected with AP reporter and OB-RL constructs. Secreted alkaline phosphatase (“SEAP”) activity in response to stimulation with mouse leptin or peptide was measured by chemiluminescence.
Two days after transfection, the cells were stimulated with mouse leptin or leptin-related synthetic peptides for 24 hours. Growth media were harvested and SEAP activity was determined by chemiluminescence as described for AP-OB binding studies.
COS-7 and GT1–7 cells were cultured in DMEM supplemented with 10% fetal bovine serum, and transfected by the lipofectamine method. […] Supernatants were collected and SEAP reporter activities were measured by chemiluminescence using the GreatEscApe alkaline phosphatase detection kit as described by the manufacturer (CLONTECH). […]

Sequence: A L S R L Q G S L Q D I L Q Q (ALSRLQGSLQDILQQ) [LEP(146–160)]
- Cumulative food intake [1]: 40.5 ± 1.0 gm/mouse
- Percent heavier (+) or lighter (−) than initial weight [1]: +28.0%
- Weight gain (+) or loss (−) [1]: +6.8 g
- Stimulation of SEAP reporter activity [2]: incapable of inducing an increase in reporter gene activity
